Here are results for 9 molecules from US20090286722A1 (priority 2005, published 2009).

One series concerns BRIN-BD11 cells. As to the kind of experiment: Insulin release from BRIN-BD11 cells, GIP alone and combined with antidiabetic drugs. Conditions: 5.6 mM glucose, 20 minutes; for insulin secretion, combination of agent with GIP compared with either agent alone: 10 nM GIP plus drug; for insulin secretion from BRIN-BD11 cells, agent alone: GIP 10 nM, drugs 25-200 μM. Format: cell-based. As for the experimental part:
Acute insulin-release studies were carried out using clonal pancreatic BRIN-BD11 cells, whose origin, characteristics and secretory responsiveness have been outlined in detail elsewhere (Irwin, N. et al., 2005, Biol. Chem. (In Press)). BRIN-BD11 cells were seeded into 24-multiwell plates at a density of 10^5 cells per well and allowed to attach overnight at 37° C.

In series [1] the test system is dipeptidyl peptidase IV (DPP IV; EC 3.4.15.5). As to the kind of experiment: in the circulation. Conditions: cited from earlier work.
The test system of series [2] is dipeptidyl peptidase IV. As to the kind of experiment: purified porcine dipeptidyl peptidase IV (5 mU) in 50 mM triethanolamine-HCl (pH 7.8). Conditions: 37° C., up to 24 hours.
In series [3] the test system is ob/ob mice. As to the kind of experiment: Daily N-AcGIP(PEG) for 14 days in 12 weeks old ob/ob mice. Format: in vivo. On the procedure: FIG. 27 is a pair of line graphs showing the effects of daily N-AcGIP(PEG) administration on food intake and body weight. N-AcGIP(PEG) (25 nmoles/kg/day) or saline vehicle (control) were administered for the 14-day period. Values are mean±SEM for 8 mice.
FIG. 28 is a pair of line graphs showing changes of plasma glucose and insulin after daily treatment of ob/ob mice with N-AcGIP(PEG) (25 nmoles/kg/day) or saline vehicle (control) for 14 days. Values are mean±SEM for 8 mice.
FIG. 29 is a set of line graphs showing the effects of daily N-AcGIP(PEG) administration on glucose tolerance and plasma insulin response to glucose. Tests were conducted after 14 daily injections of either N-AcGIP(PEG) ([…]) or saline vehicle (control). Glucose (18 mmoles/kg) was administered by intraperitoneal injection. Plasma glucose and insulin AUC values for 0-60 min post injection are shown in the right panels. Values are mean±SEM for 8 mice. *p<0.05 compared to control.
FIG. 30 is a line graph and a bar graph showing the effects of daily N-AcGIP(PEG) administration on insulin sensitivity. Tests were conducted after 14 daily injections of either N-AcGIP(PEG) (25 nmoles/kg/day) or saline vehicle (control). Insulin (50 U/kg) was administered by intraperitoneal injection. Plasma glucose AUC values from baseline for 0-60 min post injection are shown in the right panels. Values are mean±SEM for 8 mice. *p<0.05 compared to control.

Series [4] concerns ob/ob mice. The series is described as follows: Acute glucose lowering and insulin release, peptide given i.p. with glucose to 18 hour fasted ob/ob mice. The following applies: 25 nmol/kg i.p. with glucose 18 mmol/kg.
Experimental: Obese diabetic (ob/ob) mice derived from the colony maintained at Aston University, UK (23) were used at 12-16 weeks of age. […] Drinking water and standard rodent maintenance diet (Trouw Nutrition, Cheshire, UK) were freely available.
Food intake and body weight were recorded daily from 5 days before commencement of the treatment regimes. Plasma glucose and insulin concentrations (10:00 h) were monitored at 2-4 day intervals. […] All acute tests were commenced at 10:00 h. […] Serum samples were taken for determination of glucagon concentrations. All other blood samples were collected from the cut tip of the tail vein of conscious mice into chilled fluoride/heparin coated glucose microcentrifuge tubes (Sarstedt, Nümbrecht, Germany) at the times indicated in the Figures. Blood samples were immediately centrifuged using a Beckman microcentrifuge (Beckman Instruments, Galway, Ireland) for 30 seconds at 13,000×g. The resulting plasma was then aliquoted into fresh tubes and stored at −20° C. prior to glucose and insulin determinations.
In series [5] the target is purified porcine dipeptidyl peptidase IV (Sus scrofa, UniProt P22411). The series is described as follows: DPP IV degradation, % intact peptide by HPLC. The following applies: 37° C., pH 7.8. Type of series: in vitro ADME. On the procedure: (§1) HPLC peak area data were used to calculate the percentage intact peptide remaining at the various time points during the incubation.

The target in series [6] is dipeptidyl peptidase IV (Sus scrofa, UniProt P22411). The series is described as follows: DPP IV degradation, % intact peptide by HPLC. The following applies: pig, purified porcine dipeptidyl peptidase IV (DPP IV), 37° C., pH 7.8. Format: in vitro ADME, porcine. On the procedure: as §1
For series [7], the system named is ob/ob mice. The series is described as follows: 24 hour plasma glucose and insulin profile after a single dose in non-fasted ob/ob mice. Format: in vivo. Conditions: single 12.5 nmol/kg i.p. The source says: Dose of 12.5 nmol kg^−1 was chosen to evaluate the longer-term duration of action of a single dose of native or fatty acid derivatised GIP in non-fasted ob/ob mice.

Another series deals with Normal mice. The series is described as follows: Intraperitoneal glucose tolerance with peptide in younger versus older normal mice. Conditions: 25 nmol/kg i.p. with glucose 18 mmol/kg, AUC 0-60 min. Format: in vivo. On the procedure: Body weight and food intake were recorded over five days before commencement of metabolic tests. Intraperitoneal (i.p.) glucose tolerance (18 mmol/kg body weight) was assessed in non-fasted animals.

Series [8] has as its target purified porcine dipeptidyl peptidase IV (porcine, UniProt P22411 38-766, limits assumed). As to the kind of experiment: cell-based or functional assay.
Where [9] appears, read: after 14 days, glucose 18 mmol/kg i.p.

No end group written: not given here. *: point of attachment. Palmitoyl = CCCCCCCCCCCCCCCC(=O)*

Chain of purified porcine dipeptidyl peptidase IV (porcine, UniProt P22411 38-766, limits assumed) (P22411 38-766 limits assumed): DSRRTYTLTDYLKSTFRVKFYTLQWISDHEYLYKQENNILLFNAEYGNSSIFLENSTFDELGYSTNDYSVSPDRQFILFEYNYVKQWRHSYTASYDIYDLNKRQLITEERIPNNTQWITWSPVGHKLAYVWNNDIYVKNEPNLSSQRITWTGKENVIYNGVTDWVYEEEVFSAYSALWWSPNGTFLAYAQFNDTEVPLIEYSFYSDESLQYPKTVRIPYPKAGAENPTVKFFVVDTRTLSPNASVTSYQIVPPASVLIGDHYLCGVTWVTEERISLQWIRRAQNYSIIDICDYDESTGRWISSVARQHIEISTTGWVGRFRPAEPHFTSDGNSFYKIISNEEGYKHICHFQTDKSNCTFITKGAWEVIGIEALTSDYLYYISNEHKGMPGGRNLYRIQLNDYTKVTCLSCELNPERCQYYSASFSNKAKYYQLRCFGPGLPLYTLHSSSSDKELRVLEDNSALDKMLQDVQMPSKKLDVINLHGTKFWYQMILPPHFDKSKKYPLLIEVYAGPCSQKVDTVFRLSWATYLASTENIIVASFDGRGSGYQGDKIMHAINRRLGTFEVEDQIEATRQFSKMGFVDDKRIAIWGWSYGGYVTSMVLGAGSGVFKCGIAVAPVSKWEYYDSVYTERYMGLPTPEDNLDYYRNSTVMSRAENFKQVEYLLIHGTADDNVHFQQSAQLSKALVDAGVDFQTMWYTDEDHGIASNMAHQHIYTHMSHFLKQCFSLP
Chain of purified porcine dipeptidyl peptidase IV (Sus scrofa, UniProt P22411) (P22411 whole entry): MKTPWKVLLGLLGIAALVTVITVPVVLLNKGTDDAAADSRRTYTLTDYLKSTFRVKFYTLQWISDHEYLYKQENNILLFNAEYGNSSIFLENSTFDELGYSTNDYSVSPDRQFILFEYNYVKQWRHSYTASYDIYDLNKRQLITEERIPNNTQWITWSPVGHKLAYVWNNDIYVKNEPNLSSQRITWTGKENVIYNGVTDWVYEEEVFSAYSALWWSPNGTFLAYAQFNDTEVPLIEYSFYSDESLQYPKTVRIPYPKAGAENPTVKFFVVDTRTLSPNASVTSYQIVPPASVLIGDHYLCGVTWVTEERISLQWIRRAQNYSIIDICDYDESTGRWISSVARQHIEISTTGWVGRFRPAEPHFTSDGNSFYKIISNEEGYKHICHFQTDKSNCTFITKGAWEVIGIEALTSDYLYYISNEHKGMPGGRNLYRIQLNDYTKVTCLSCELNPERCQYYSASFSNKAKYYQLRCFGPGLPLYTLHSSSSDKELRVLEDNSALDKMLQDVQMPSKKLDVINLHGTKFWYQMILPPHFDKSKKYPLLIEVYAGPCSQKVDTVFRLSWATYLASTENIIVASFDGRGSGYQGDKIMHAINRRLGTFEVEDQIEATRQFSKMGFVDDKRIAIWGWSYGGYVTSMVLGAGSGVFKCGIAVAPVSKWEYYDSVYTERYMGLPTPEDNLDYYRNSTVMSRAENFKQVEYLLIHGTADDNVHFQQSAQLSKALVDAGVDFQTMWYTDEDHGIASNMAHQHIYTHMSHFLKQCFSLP
Chain of dipeptidyl peptidase IV (Sus scrofa, UniProt P22411) (P22411 whole entry): as above

In the case of `CC(C)[C@H]1CC[C@H](C(=O)N[C@H](Cc2ccccc2)C(=O)O)CC1` [nateglinide], in the series on BRIN-BD11 cells, the “insulin secretion, combination of agent with GIP compared with either agent alone” value is recorded as “significant potentiation” and the “insulin secretion from BRIN-BD11 cells, agent alone” value was “stimulated insulin secretion”.
For the molecule “yaegtfisdysiamdkihqqdfvnwllaqkgkkndwkhnitq”, the fragment found entry in series [1] is listed as “GIP(3-42), major”; with dipeptidyl peptidase IV [2], “GIP(3-42), major, 2 hours”.
On to “N-AcGIP(PEG): GIP molecule in which PEG is attached to the C-terminus and the Acetyl group to the opposite end”, for which, in the series with ob/ob mice [3] (25 nmoles/kg/day, 14 days), the circulating insulin entry is reported as “without appreciable change”, the “effect on body weight” value is on record as “did not affect”, the “effect on food intake” value is recorded as “did not affect” and the non-fasting glucose result is on record as “decreased”. Also, in the series with ob/ob mice [3] (setting [9]), the “glucose tolerance after intraperitoneal glucose load” value is given as “improved glucose tolerance”; the “overall glycaemic response after intraperitoneal glucose load” value is recorded as “reduced the overall glycaemic response”; the “plasma insulin concentrations and insulin response to intraperitoneal glucose” value is “enhanced”. Further, the “plasma glucose after administration of insulin (insulin sensitivity)” value in the series on ob/ob mice [3] (after 14 days, insulin 50 U/kg i.p.) is “lower plasma glucose concentrations”.
For the molecule `CCCCNC(=O)NS(=O)(=O)c1ccc(C)cc1` [tolbutamide], in the series on BRIN-BD11 cells, the “insulin secretion, combination of agent with GIP compared with either agent alone” value is on record as “significant potentiation” and the “insulin secretion from BRIN-BD11 cells, agent alone” value was “stimulated insulin secretion”.
The term amount remaining denotes the share of the starting amount still present when the sample was taken. For the molecule `CC[C@H](C)[C@H](NC(=O)[C@H](CO)NC(=O)[C@H](Cc1ccc(O)cc1)NC(=O)[C@H](CC(=O)O)NC(=O)[C@H](CO)NC(=O)[C@@H](NC(=O)[C@H](Cc1ccccc1)NC(=O)[C@@H](NC(=O)CNC(=O)[C@H](CCC(=O)O)NC(=O)[C@H](C)NC(=O)[C@@H](N)Cc1ccc(O)cc1)[C@@H](C)O)[C@@H](C)CC)C(=O)N[C@@H](C)C(=O)N[C@@H](CCSC)C(=O)N[C@@H](CC(=O)O)C(=O)N[C@@H](CCCCN)C(=O)N[C@H](C(=O)N[C@@H](Cc1c[nH]cn1)C(=O)N[C@@H](CCC(N)=O)C(=O)N[C@@H](CCC(N)=O)C(=O)N[C@@H](CC(=O)O)C(=O)N[C@@H](Cc1ccccc1)C(=O)N[C@H](C(=O)N[C@@H](CC(N)=O)C(=O)N[C@@H](Cc1c[nH]c2ccccc12)C(=O)N[C@@H](CC(C)C)C(=O)N[C@@H](CC(C)C)C(=O)N[C@@H](C)C(=O)N[C@@H](CCC(N)=O)C(=O)N[C@@H](CCCCN)C(=O)NCC(=O)N[C@@H](CCCCN)C(=O)N[C@@H](CCCCN)C(=O)N[C@@H](CC(N)=O)C(=O)N[C@@H](CC(=O)O)C(=O)N[C@@H](Cc1c[nH]c2ccccc12)C(=O)N[C@@H](CCCCN)C(=O)N[C@@H](Cc1c[nH]cn1)C(=O)N[C@@H](CC(N)=O)C(=O)N[C@H](C(=O)N[C@H](C(=O)N[C@@H](CCC(N)=O)C(=O)O)[C@@H](C)O)[C@@H](C)CC)C(C)C)[C@@H](C)CC` [Native GIP, reference compound], in the series with ob/ob mice [4], the “insulin release compared to glucose alone” value is “significantly greater”; the “plasma glucose concentrations and AUC (0-60 min) compared to glucose alone” value is “neither this nor the overall AUC glucose excursion achieved significance”. In addition, the “% Intact peptide remaining after time (h) 0” value in series [5] (0 h incubation with DPP IV (5 mU)) is 100%. The “% Intact peptide remaining after time (h) 2” value in series [5] (2 h incubation with DPP IV (5 mU)) came out at 52±3%. Further, the “% Intact peptide remaining after time (h) 8” value in series [5] (8 h incubation with DPP IV (5 mU)) is on record as “completely degraded”. At dipeptidyl peptidase IV [6] (2 h incubation with DPP IV (5 mU), read-out: % Intact peptide remaining after time (h) 2), the fraction remaining at 2 h, 2 mM came out at 52 ± 3%. Besides, the share remaining at 8 h, 2 mM on dipeptidyl peptidase IV [6] (8 h incubation with DPP IV (5 mU), read-out: % Intact peptide remaining after time (h) 8) stood at 0%. The amount remaining at 24 h, 2 mM on dipeptidyl peptidase IV [6] (24 h incubation with DPP IV (5 mU), read-out: % Intact peptide remaining after time (h) 24) is 0%. Moreover, in the series on BRIN-BD11 cells, the “insulin secretion from BRIN-BD11 cells, agent alone” value is “stimulated insulin secretion”. For the same molecule, in the series with ob/ob mice [7], the “effect on plasma glucose over 24 hours” value is listed as “transient, but not significant effect”. In the series with Normal mice, the “overall plasma glucose response in older mice compared to younger controls” value is given as “significantly elevated” and the “overall plasma insulin response in older mice compared to younger controls” value is listed as “significantly less”.
In the case of `COc1ccc(Cl)cc1C(=O)NCCc1ccc(S(=O)(=O)NC(=O)NC2CCCCC2)cc1` [glibenclamide], in the series on BRIN-BD11 cells, the “insulin secretion, combination of agent with GIP compared with either agent alone” value was “significant potentiation” and the “insulin secretion from BRIN-BD11 cells, agent alone” value was “stimulated insulin secretion”.
As for YAEGTFISDYSIAMDKIHQQDFVNWLLAQKGKKNDWK(Palmitoyl)HNITQ [GIP(LysPAL^37)], in series [8], the “% Intact peptide remaining after time (h): 0” value amounted to 100%, the “% Intact peptide remaining after time (h): 2” value is 100%, the “% Intact peptide remaining after time (h): 8” value stood at 100% and the “% Intact peptide remaining after time (h): 24” value (“% Intact peptide remaining … 24” below) stood at 100%.
For the molecule YAEGTFISDYSIAMDKIHQQDFVNWLLAQKGKKNDWKHNITQ (C-16 palmitoyl group on the epsilon amino group of Lys 16) [GIP(LysPAL^16)], in [8], the “% Intact peptide remaining after time (h): 0” value stood at 100%, the “% Intact peptide remaining after time (h): 2” value was found to be 100%, the “% Intact peptide remaining after time (h): 8” value was determined as 100% and the “% Intact peptide remaining … 24” value was 100%.
On to YAEGTFISDYSIAMDKIHQQDFVNWLLAQKGKKNDWKHNITQ [native GIP (glucose-dependent insulinotropic polypeptide; gastric inhibitory polypeptide), GIP(1-42)], for which, in series [8], the “% Intact peptide remaining after time (h): 0” value came out at 100%, the “% Intact peptide remaining after time (h): 2” value came to 52%, the “% Intact peptide remaining after time (h): 8” value turned out to be 0% and the “% Intact peptide remaining … 24” value came to 0%.
